Experimental data reported in ChEMBL document CHEMBL4308841, “Synthesis, in vitro antiproliferative activity, and kinase inhibitory effects of pyrazole-containing diarylureas and diarylamides” (Eur J Med Chem, 2018).

How the values were obtained:
HT-29 = experiment: Growth inhibition of human HT-29 cells assessed as cell growth at 10 uM incubated for 48 hrs by sulforhodamine B assay relative to control; format: functional; details: HT-29, 48 h, read-out: Activity
K562 = experiment: Growth inhibition of human K562 cells incubated for 48 hrs by sulforhodamine B assay; format: functional, cell-based; details: K562, 48 h
SW-620 = experiment: Growth inhibition of human SW620 cells incubated for 48 hrs by sulforhodamine B assay; format: functional, cell-based; details: SW-620, 48 h
SF-268 [1] = experiment: Growth inhibition of human SF268 cells incubated for 48 hrs by sulforhodamine B assay; format: functional, cell-based; details: SF-268, 48 h
LOX IMVI = experiment: Growth inhibition of human LOXIMVI cells incubated for 48 hrs by sulforhodamine B assay; format: functional
UACC-257 [2] = experiment: Growth inhibition of human UACC257 cells incubated for 48 hrs by sulforhodamine B assay; format: functional, cell-based; details: UACC-257, 48 h
COLO 205 = experiment: Growth inhibition of human COLO205 cells assessed as cell growth at 0.01 uM incubated for 48 hrs by sulforhodamine B assay relative to control; format: functional; details: COLO 205, 48 h, read-out: Activity
HCC 2998 [3] = experiment: Growth inhibition of human HCC2998 cells assessed as cell growth at 0.01 uM incubated for 48 hrs by sulforhodamine B assay relative to control; format: functional; details: HCC 2998, 48 h, read-out: Activity
SF-268 [4] = experiment: Growth inhibition of human SF268 cells assessed as cell growth at 0.01 uM incubated for 48 hrs by sulforhodamine B assay relative to control; format: functional; details: SF-268, 48 h, read-out: Activity
U-251 = experiment: Growth inhibition of human U251 cells assessed as cell growth at 0.01 uM incubated for 48 hrs by sulforhodamine B assay relative to control; format: functional; details: U-251, 48 h, read-out: Activity
NCI/ADR-RES = experiment: Growth inhibition of human NCI/ADR-RES cells assessed as cell growth at 0.01 uM incubated for 48 hrs by sulforhodamine B assay relative to control; format: functional; details: read-out: Activity
DU-145 [5] = experiment: Growth inhibition of human DU145 cells assessed as cell growth at 0.01 uM incubated for 48 hrs by sulforhodamine B assay relative to control; format: functional; details: DU-145, 48 h, read-out: Activity
NCI-H322M = experiment: Growth inhibition of human NCI-H322M cells assessed as cell growth at 0.1 uM incubated for 48 hrs by sulforhodamine B assay relative to control; format: functional; details: read-out: Activity
UACC-257 [6] = experiment: Growth inhibition of human UACC257 cells assessed as cell growth at 0.1 uM incubated for 48 hrs by sulforhodamine B assay relative to control; format: functional; details: UACC-257, 48 h, read-out: Activity
UO-31 = experiment: Growth inhibition of human UO31 cells assessed as cell growth at 0.1 uM incubated for 48 hrs by sulforhodamine B assay relative to control; format: functional; details: UO-31, 48 h, read-out: Activity
DU-145 [7] = experiment: Growth inhibition of human DU145 cells assessed as cell growth at 0.1 uM incubated for 48 hrs by sulforhodamine B assay relative to control; format: functional; details: DU-145, 48 h, read-out: Activity
HOP-62 = experiment: Growth inhibition of human HOP62 cells assessed as cell growth at 1 uM incubated for 48 hrs by sulforhodamine B assay relative to control; format: functional; details: HOP-62, 48 h, read-out: Activity
NCI-H226 = experiment: Growth inhibition of human NCI-H226 cells assessed as cell growth at 1 uM incubated for 48 hrs by sulforhodamine B assay relative to control; format: functional; details: NCI-H226, 48 h, read-out: Activity
HCC 2998 [8] = experiment: Growth inhibition of human HCC2998 cells assessed as cell growth at 1 uM incubated for 48 hrs by sulforhodamine B assay relative to control; format: functional; details: HCC 2998, 48 h, read-out: Activity
SNB-19 = experiment: Growth inhibition of human SNB19 cells assessed as cell growth at 1 uM incubated for 48 hrs by sulforhodamine B assay relative to control; format: functional; details: SNB-19, 48 h, read-out: Activity
Malme-3M = experiment: Growth inhibition of human MALME-3M cells assessed as cell growth at 1 uM incubated for 48 hrs by sulforhodamine B assay relative to control; format: functional; details: read-out: Activity
UACC-62 [9] = experiment: Growth inhibition of human UACC62 cells assessed as cell growth at 1 uM incubated for 48 hrs by sulforhodamine B assay relative to control; format: functional; details: UACC-62, 48 h, read-out: Activity
SN12C = experiment: Growth inhibition of human SN12C cells assessed as cell growth at 1 uM incubated for 48 hrs by sulforhodamine B assay relative to control; format: functional; details: read-out: Activity
MDA-MB-468 = experiment: Growth inhibition of human MDA-MB-468 cells assessed as cell growth at 1 uM incubated for 48 hrs by sulforhodamine B assay relative to control; format: functional; details: MDA-MB-468, 48 h, read-out: Activity
RPMI-8226 = experiment: Growth inhibition of human RPMI8226 cells assessed as cell growth at 100 uM incubated for 48 hrs by sulforhodamine B assay relative to control; format: functional; details: RPMI-8226, 48 h, read-out: Activity
M14 = experiment: Growth inhibition of human M14 cells assessed as cell growth at 100 uM incubated for 48 hrs by sulforhodamine B assay relative to control; format: functional; details: M14, 48 h, read-out: Activity
UACC-62 [10] = experiment: Growth inhibition of human UACC62 cells assessed as cell growth at 100 uM incubated for 48 hrs by sulforhodamine B assay relative to control; format: functional; details: UACC-62, 48 h, read-out: Activity
OVCAR-5 = experiment: Growth inhibition of human OVCAR5 cells assessed as cell growth at 100 uM incubated for 48 hrs by sulforhodamine B assay relative to control; format: functional; details: OVCAR-5, 48 h, read-out: Activity
A498 = experiment: Growth inhibition of human A498 cells assessed as cell growth at 100 uM incubated for 48 hrs by sulforhodamine B assay relative to control; format: functional; details: A498, 48 h, read-out: Activity
RXF 393 = experiment: Growth inhibition of human RXF393 cells assessed as cell growth at 100 uM incubated for 48 hrs by sulforhodamine B assay relative to control; format: functional; details: RXF 393, 48 h, read-out: Activity
[11] = read-out: LC50 (the source's name)
[12] = read-out: pLC50 (the source's name) (converted)

COc1cc(Cl)cc(-c2nn(-c3cccc(NC(=O)c4ccc(N5CCOCC5)c(C(F)(F)F)c4)c3)cc2-c2ccncc2)c1
growth at 10 µM (HT-29): 21.2%
GI50 (K562; read-out: GI50): 3.1 µM
LC50 (K562; read-out: LC50): > 100 µM
TGI (K562; read-out: TGI): > 100 µM
GI50 (K562; read-out: pGI50 (converted)): 3.09 µM
LC50 (K562; read-out: pLC50 (converted)): > 100 µM
TGI (K562; read-out: pTGI (converted)): > 100 µM
GI50 (SW-620; read-out: GI50): 2.96 µM
LC50 (SW-620; read-out: LC50): > 100 µM
TGI (SW-620; read-out: TGI): > 100 µM
GI50 (SW-620; read-out: pGI50 (converted)): 29.5 µM
LC50 (SW-620; read-out: pLC50 (converted)): > 100 µM
TGI (SW-620; read-out: pTGI (converted)): > 100 µM
GI50 (SF-268 [1]; read-out: GI50): > 100 µM
CC50 (SF-268 [1]; [11]): > 100 µM
TGI (SF-268 [1]; read-out: TGI): > 100 µM
GI50 (SF-268 [1]; read-out: pGI50 (converted)): > 100 µM
CC50 (SF-268 [1]; [12]): > 100 µM
TGI (SF-268 [1]; read-out: pTGI (converted)): > 100 µM
GI50 (LOX IMVI; read-out: GI50): 1.58 µM
CC50 (LOX IMVI; [11]): > 100 µM
TGI (LOX IMVI; read-out: TGI): > 100 µM
GI50 (LOX IMVI; read-out: pGI50 (converted)): 15.8 µM
CC50 (LOX IMVI; [12]): > 100 µM
TGI (LOX IMVI; read-out: pTGI (converted)): > 100 µM
GI50 (UACC-257 [2]; read-out: GI50): 2.17 µM
CC50 (UACC-257 [2]; [11]): > 100 µM
TGI (UACC-257 [2]; read-out: TGI): 69.1 µM
GI50 (UACC-257 [2]; read-out: pGI50 (converted)): 21.9 µM
CC50 (UACC-257 [2]; [12]): > 100 µM
TGI (UACC-257 [2]; read-out: pTGI (converted)): 69.2 µM
growth at 0.01 µM (COLO 205): 103%
growth at 0.01 µM (HCC 2998 [3]): 95%
growth at 0.01 µM (SF-268 [4]): 95%
growth at 0.01 µM (U-251): 95%
growth at 0.01 µM (NCI/ADR-RES): 96%
growth at 0.01 µM (DU-145 [5]): 108%
growth at 0.1 µM (NCI-H322M): 94%
growth at 0.1 µM (UACC-257 [6]): 97%
growth at 0.1 µM (UO-31): 87%
growth at 0.1 µM (DU-145 [7]): 97%
growth at 1 µM (HOP-62): 107%
growth at 1 µM (NCI-H226): 54%
growth at 1 µM (HCC 2998 [8]): 100%
growth at 1 µM (SNB-19): 92%
growth at 1 µM (Malme-3M): 58%
growth at 1 µM (UACC-62 [9]): 84%
growth at 1 µM (SN12C): 89%
growth at 1 µM (MDA-MB-468): 56%
growth at 100 µM (RPMI-8226): 10%
growth at 100 µM (M14): 5%
growth at 100 µM (UACC-62 [10]): 10%
growth at 100 µM (OVCAR-5): 38%
growth at 100 µM (A498): 24%
growth at 100 µM (RXF 393): -10%

COc1cc(Cl)cc(-c2nn(-c3cccc(NC(=O)Nc4cccc(C(F)(F)F)c4)c3)cc2-c2ccncc2)c1
growth at 10 µM (HT-29): 5.75%
GI50 (K562; read-out: GI50): 0.823 µM
LC50 (K562; read-out: LC50): > 100 µM
TGI (K562; read-out: TGI): 14.4 µM
GI50 (K562; read-out: pGI50 (converted)): 0.832 µM
LC50 (K562; read-out: pLC50 (converted)): > 100 µM
TGI (K562; read-out: pTGI (converted)): 14.5 µM
GI50 (SW-620; read-out: GI50): 2.3 µM
LC50 (SW-620; read-out: LC50): > 100 µM
TGI (SW-620; read-out: TGI): 25.8 µM
GI50 (SW-620; read-out: pGI50 (converted)): 2.29 µM
LC50 (SW-620; read-out: pLC50 (converted)): > 100 µM
TGI (SW-620; read-out: pTGI (converted)): 26.9 µM
GI50 (SF-268 [1]; read-out: GI50): 2.56 µM
CC50 (SF-268 [1]; [11]): > 100 µM
TGI (SF-268 [1]; read-out: TGI): 17.1 µM
GI50 (SF-268 [1]; read-out: pGI50 (converted)): 2.57 µM
CC50 (SF-268 [1]; [12]): > 100 µM
TGI (SF-268 [1]; read-out: pTGI (converted)): 17 µM
GI50 (LOX IMVI; read-out: GI50): 1.51 µM
CC50 (LOX IMVI; [11]): 82.8 µM
TGI (LOX IMVI; read-out: TGI): 70.4 µM
GI50 (LOX IMVI; read-out: pGI50 (converted)): 1.82 µM
CC50 (LOX IMVI; [12]): 83.2 µM
TGI (LOX IMVI; read-out: pTGI (converted)): 7.08 µM
GI50 (UACC-257 [2]; read-out: GI50): 1.75 µM
CC50 (UACC-257 [2]; [11]): 21.5 µM
TGI (UACC-257 [2]; read-out: TGI): 45.5 µM
GI50 (UACC-257 [2]; read-out: pGI50 (converted)): 1.74 µM
CC50 (UACC-257 [2]; [12]): 21.4 µM
TGI (UACC-257 [2]; read-out: pTGI (converted)): 4.68 µM
growth at 0.01 µM (COLO 205): 100%
growth at 0.01 µM (HCC 2998 [3]): 98%
growth at 0.01 µM (SF-268 [4]): 97%
growth at 0.01 µM (U-251): 95%
growth at 0.01 µM (NCI/ADR-RES): 100%
growth at 0.01 µM (DU-145 [5]): 101%
growth at 0.1 µM (NCI-H322M): 94%
growth at 0.1 µM (UACC-257 [6]): 94%
growth at 0.1 µM (UO-31): 50%
growth at 0.1 µM (DU-145 [7]): 99%
growth at 1 µM (HOP-62): 85%
growth at 1 µM (NCI-H226): 77%
growth at 1 µM (HCC 2998 [8]): 98%
growth at 1 µM (SNB-19): 77%
growth at 1 µM (Malme-3M): 75%
growth at 1 µM (UACC-62 [9]): 70%
growth at 1 µM (SN12C): 59%
growth at 1 µM (MDA-MB-468): 51%
growth at 100 µM (RPMI-8226): -43%
growth at 100 µM (M14): -78%
growth at 100 µM (UACC-62 [10]): -82%
growth at 100 µM (OVCAR-5): -13%
growth at 100 µM (A498): -6%
growth at 100 µM (RXF 393): -80%
